The experiment has as its target human PAI-1 (Homo sapiens, UniProt P05121). The experiment in a line: Measurement of PAI-1 inhibitory activity of compound group 1 (t-PA, Spectrozyme t-PA chromogenic substrate). Particulars: read-out: PAI-1 activity %.
Chain of human PAI-1 (P05121 24-402): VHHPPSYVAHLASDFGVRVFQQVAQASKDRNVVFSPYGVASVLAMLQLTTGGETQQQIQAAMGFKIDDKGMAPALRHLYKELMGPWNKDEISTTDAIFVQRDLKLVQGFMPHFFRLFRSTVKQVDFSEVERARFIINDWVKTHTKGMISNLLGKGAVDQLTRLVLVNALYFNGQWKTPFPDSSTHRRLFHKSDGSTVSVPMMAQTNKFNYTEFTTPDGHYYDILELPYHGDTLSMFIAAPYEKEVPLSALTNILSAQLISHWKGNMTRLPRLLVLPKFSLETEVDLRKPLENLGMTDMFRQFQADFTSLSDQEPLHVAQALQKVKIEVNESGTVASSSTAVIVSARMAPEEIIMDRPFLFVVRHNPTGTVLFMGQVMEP
Protocol: Subsequently, human-derived tissue plasminogen activator (t-PA) (manufactured by American Diagnostica, Inc. (USA); the same applies hereinafter) adjusted to 0.05 pmol/μL was added thereto, and the mixture was further incubated at 37° C. for 60 minutes. Then, 0.25 mM of Spectrozyme t-PA synthetic substrate (manufactured by American Diagnostica, Inc. (USA); the same applies hereinafter), which is a chromogenic substrate, was added. The final mixture contained 50 mM Tris-HCl (pH 8), 150 mM NaCl, 1% DMSO, 0.1% PEG-6000, 0.2 mM CHAPS, 5 nM PAI-1, 2 nM t-PA, 0.2 mM Spectrozyme t-PA synthetic substrate, and each compound (10 μM or 2.5 μM).
Free radical p-nitroaniline removed from the chromogenic substrate (Spectrozyme t-PA) by t-PA action was measured using a spectrophotometer at an absorbance of 405 nm at 20-minute intervals, for 120 minutes.
As for `O=C(COc1ccc(-c2ccoc2)cc1)Nc1ccc(Cl)cc1C(=O)O` [Example 29, 5-chloro-2-({[4-(furan-3-yl)phenoxy]acetyl}amino)benzoic acid], the activity at 2.5 µM was determined as 93.2% and the activity at 10 µM is 24.3%.
Taken in the same sequence, the figures for `O=C(COc1cccc(C23CC4CC(CC(C4)C2)C3)c1)Nc1ccc(Cl)cc1C(=O)O` [Example 30, 2-({[3-(adamantan-1-yl)phenoxy]acetyl}amino)-5-chlorobenzoic acid] were 19.3% and 1.3%.
Consider `O=C(O)c1cc(Cl)ccc1NC(=O)C1CCCN(C(=O)c2cccc(-c3ccccc3)c2)C1` (stereo not shown) [Example 31, 2-({[1-(biphenyl-3-ylcarbonyl)piperidin-3-yl]carbonyl}amino)-5-chlorobenzoic acid], for which the activity at 2.5 µM is 88% and the activity at 10 µM stood at 20.2%.
Taken in the same sequence, the figures for `Cc1ccc(-c2cccc(C(=O)Nc3ccc(Cl)cc3C(=O)O)c2)cc1` [Example 32, 5-chloro-2-{[(4′-methylbiphenyl-3-yl)carbonyl]amino}benzoic acid] were 94.4% and 1.7%.
On the same counts, the results for `COc1ccccc1-c1cccc(C(=O)Nc2ccc(Cl)cc2C(=O)O)c1` [Example 33, 5-chloro-2-{[(2′-methoxybiphenyl-3-yl)carbonyl]amino}benzoic acid] are 92.8% and 21.6%.
On the same counts, the results for `O=C(Nc1ccc(Cl)cc1C(=O)O)c1ccc(C2=CCOCC2)cc1` [Example 34, 5-chloro-2-({[4-(3,6-dihydro-2H-pyran-4-yl)phenyl]carbonyl}amino)benzoic acid] are 97.1% and 45.1%.
Consider `O=C(O)c1cc(Cl)ccc1NC(=O)C1(c2cccc(-c3ccoc3)c2)CC1` [Example 35, 5-chloro-2-[({1-[3-(furan-3-yl)phenyl]cyclopropyl}carbonyl)amino]benzoic acid], for which the activity at 2.5 µM came to 98.8% and the activity at 10 µM was determined as 15.6%.
In the case of `O=C(CCc1cccc(-c2ccoc2)c1)Nc1ccc(Cl)cc1C(=O)O` [Example 36, 5-chloro-2-({3-[3-(furan-3-yl)phenyl]propanoyl}amino)benzoic acid], the activity at 2.5 µM was determined as 95.7% and the activity at 10 µM stood at 3.7%.
Taken in the same sequence, the figures for `CC(C)(C(=O)Nc1ccc(Cl)cc1C(=O)O)c1cccc(-c2ccoc2)c1` [Example 37, 5-chloro-2-({2-[3-(furan-3-yl)phenyl]-2-methylpropanoyl}amino)benzoic acid] were 53.1% and 5.9%.
As to `O=C(O)c1cc(Cl)ccc1NC(=O)c1cccc2c1Cc1ccccc1-2` [Example 38, 5-chloro-2-[(9H-fluoren-1-ylcarbonyl)amino]benzoic acid], the activity at 2.5 µM was determined as 94.8% and the activity at 10 µM was 2.5%.
Consider `O=C(Nc1ccc(Cl)cc1C(=O)O)c1ccc(C23CC4CC(CC(C4)C2)C3)cc1` [Example 40, 2-({[4-(adamantan-1-yl)phenyl]carbonyl}amino)-5-chlorobenzoic acid], for which the activity at 2.5 µM stood at 19.3% and the activity at 10 µM came out at 1.7%.
On the same counts, the results for `O=C(CC(c1ccccc1)c1ccccc1)Nc1ccc(Cl)cc1C(=O)O` [Example 41, 5-chloro-2-[(3,3-diphenylpropanoyl)amino]benzoic acid] are 72.4% and 12.9%.
Taken in the same sequence, the figures for `O=C(Nc1ccc(Cl)cc1C(=O)O)c1ccc(Oc2ccccc2)cc1` [Example 42, 5-chloro-2-{[(4-phenoxyphenyl)carbonyl]amino}benzoic acid] were 98.6% and 3.8%.
On the same counts, the results for `O=C(Nc1ccc(Cl)cc1C(=O)O)c1cc(C(F)(F)F)cc(C(F)(F)F)c1` [Example 43, 2-({[3,5-bis(trifluoro-methyl)phenyl)carbonyl}amino)-5-chlorobenzoic acid] are 98.4% and 14.1%.
Regarding `CC(C)(Oc1cccc(-c2ccoc2)c1)C(=O)Nc1ccc(Cl)cc1C(=O)O` [Example 44, 5-chloro-2-({2-[3-(furan-3-yl)phenoxy]-2-methylpropanoyl}amino)benzoic acid], the activity at 2.5 µM was found to be 97.8% and the activity at 10 µM was 20.4%.
On the same counts, the results for `O=C(COc1ccc(C23CC4CC(CC(C4)C2)C3)cc1)Nc1ccc(-c2ccoc2)cc1C(=O)O` [Example 47, 2-({[4-(adamantan-1-yl)phenoxy]acetyl}amino)-5-(furan-3-yl)benzoic acid] are 9.7% and 0.6%.
Taken in the same sequence, the figures for `Cn1c(C(=O)Nc2ccc(Cl)cc2C(=O)O)cc2cc(-c3ccccc3)ccc21` [Example 48, 5-chloro-2-{[(1-methyl-5-phenyl-1H-indol-2-yl)carbonyl]amino}benzoic acid] were 2.5% and 1.7%.
Taken in the same sequence, the figures for `Cc1ccc(-c2ccc(OCC(=O)Nc3ccc(Cl)cc3C(=O)O)cc2)cc1` [Example 49, 5-chloro-2-({[(4′-methylbiphenyl-4-yl)oxy]acetyl}amino)benzoic acid] were 82.1% and 1.1%.
As to `Cc1cc(C)cc(-c2ccc(OCC(=O)Nc3ccc(Cl)cc3C(=O)O)cc2)c1` [Example 50, 5-chloro-2-({[(3′,5′-dimethylbiphenyl-4-yl)oxy]acetyl}amino)benzoic acid], the activity at 2.5 µM is 58.9% and the activity at 10 µM is 0.1%.
As for `O=C(Cn1ccc2cc(-c3ccccc3)ccc21)Nc1ccc(Cl)cc1C(=O)O` [Example 51, 5-chloro-2-{[(5-phenyl-1H-indol-1-yl)acetyl]amino}benzoic acid], the activity at 2.5 µM came to 37.8% and the activity at 10 µM stood at 1.7%.
On the same counts, the results for `O=C(Nc1ccc(Cl)cc1C(=O)O)c1ccc(OCC23CC4CC(CC(C4)C2)C3)cc1` [Example 52, 2-({[4-(adamantan-1-ylmethoxy)phenyl]carbonyl}amino)-5-chlorobenzoic acid] are 7.2% and 5.1%.
Taken in the same sequence, the figures for `O=C(COc1cccc(-c2ccco2)c1)Nc1ccc(Cl)cc1C(=O)O` [Example 53, 5-chloro-2-({[3-(furan-2-yl)phenoxy]acetyl}amino)benzoic acid] were 95.3% and 21.6%.
Taken in the same sequence, the figures for `O=C(COc1ccc(-c2ccco2)cc1)Nc1ccc(Cl)cc1C(=O)O` [Example 54, 5-chloro-2-({[4-(furan-2-yl)phenoxy]acetyl}amino)benzoic acid] were 94.4% and 15.5%.
On to `O=C(CCCOc1ccc(C23CC4CC(CC(C4)C2)C3)cc1)Nc1ccc(Cl)cc1C(=O)O` [Example 55, 2-({4-[4-(adamantan-1-yl)phenoxy]butanoyl}amino)-5-chlorobenzoic acid], for which the activity at 2.5 µM was found to be 29.8% and the activity at 10 µM was found to be 1.1%.
On the same counts, the results for `O=C(Nc1ccc(Cl)cc1C(=O)O)c1ccc(C(=O)C23CC4CC(CC(C4)C2)C3)cc1` [Example 56, 2-({[4-(adamantan-1-ylcarbonyl)phenyl]carbonyl}amino)-5-chlorobenzoic acid] are 75.8% and 0.7%.
As to `O=C(Nc1ccc(Cl)cc1C(=O)O)C(=O)c1c[nH]c2ccc(OCc3ccccc3)cc12` [Example 57, 2-({[5-(benzyloxy)-1H-indol-3-yl](oxo)acetyl}amino)-5-chlorobenzoic acid], the activity at 2.5 µM came to 38.6% and the activity at 10 µM stood at 0.2%.
For the compound `O=C(Nc1ccc(Cl)cc1C(=O)O)c1cccc(-c2cccc3ccccc23)c1` [Example 58, 5-chloro-2-({[3-(naphthalen-1-yl)phenyl]carbonyl}amino)benzoic acid], the activity at 2.5 µM turned out to be 0% and the activity at 10 µM was 0%.
Take `O=C(CCOc1ccc(C23CC4CC(CC(C4)C2)C3)cc1)Nc1ccc(Cl)cc1C(=O)O` [Example 59, 2-({3-[4-(adamantan-1-yl)phenoxy]propanoyl}amino)-5-chlorobenzoic acid]: the activity at 2.5 µM is 56.3% and the activity at 10 µM was determined as 1.4%.
Turning to `O=C(O)c1cc(Cl)ccc1NC(=O)c1cc2cc(-c3ccccc3)ccc2n1CCCO` [Example 60, 5-chloro-2-({[1-(3-hydroxypropyl)-5-phenyl-1H-indol-2-yl]carbonyl}amino)benzoic acid], the activity at 2.5 µM is 25% and the activity at 10 µM worked out at 0.9%.
Taken in the same sequence, the figures for `COc1ccccc1-c1cccc(OCC(=O)Nc2ccc(Cl)cc2C(=O)O)c1` [Example 61, 5-chloro-2-({[(2′-methoxybiphenyl-3-yl)oxy]acetyl}amino)benzoic acid] were 92.4% and 38.9%.
Consider `O=C(Nc1ccc(Cl)cc1C(=O)O)c1cccc(C23CC4CC(CC(C4)C2)C3)c1` [Example 62, 2-({[3-(adamantan-1-yl)phenyl]carbonyl}amino)-5-chlorobenzoic acid], for which the activity at 2.5 µM came out at 29.1% and the activity at 10 µM was found to be 0.6%.
For `O=C(Nc1ccc(Cl)cc1C(=O)O)c1ccc(C2CCCCC2)cc1` [Example 69, 5-chloro-2-{[(4-cyclohexylphenyl)carbonyl]amino}benzoic acid], the activity at 2.5 µM amounted to 44.7% and the activity at 10 µM is 0.6%.
On the same counts, the results for `O=C(Cc1ccc(-c2ccccc2)cc1)Nc1ccc(Cl)cc1C(=O)O` [Example 70, 2-[(biphenyl-4-ylacetyl)amino]-5-chlorobenzoic acid] are 94.6% and 4.4%.
For `O=C(Nc1ccc(-c2ccccc2)cc1)Nc1ccc(Cl)cc1C(=O)O` [Example 71, 2-[(biphenyl-4-ylcarbamoyl)amino]-5-chlorobenzoic acid], the activity at 2.5 µM turned out to be 39.6% and the activity at 10 µM amounted to 2.1%.
For the compound `Cc1ccc(-c2ccc(F)cc2)cc1NCC(=O)Nc1ccc(Cl)cc1C(=O)O` [Example 72, 5-chloro-2-{[N-(4′-fluoro-4-methylbiphenyl-3-yl)glycyl]amino}benzoic acid], the activity at 2.5 µM came out at 31.1% and the activity at 10 µM amounted to 3.6%.

The record behind these values is US10092537B2, “Use for PAI-1 inhibitor” (RENASCIENCE CO., LTD., priority 2013, dated 2018).
